Earlier results on two compounds are cited in patent EP0630652A2, “Contrast media” (NYCOMED SALUTAR, INC., priority 1991, dated 1993).

The conditions of data set [1]: Unger et al. Invest. Radiol. 21: 802 (1986).
For data set [2] the following is noted: Caussen et al. ROFO 148: 683.

With `O=C([O-])CN(CCN(CC(=O)[O-])CC(=O)[O-])CCN(CC(=O)[O-])CC(=O)[O-].[Yb+3]` [ytterbium DTPA], the LD₅₀ in data set [1] is 10 mmol/kg.
Consider `O=C([O-])CN(CCN(CC(=O)[O-])CC(=O)O)CCN(CC(=O)[O-])CC(=O)O.[Gd+3]` [GdDTPA], for which the side effect entry in data set [2] (GI tract use) is listed as “diarrhoea”. The “contrast improvement in the GI tract” value in data set [2] (MRI) was “relatively poor”.
